From US20190175557A1, “COMPOUNDS USEFUL FOR DECREASING INTERFERON LEVEL” (priority 2016, published 2019)

What was measured:
[1] = system: NK cells activated by K562 cells; test: IFN-γ, TNF-α and CD107a expression by NK cells activated by K562 cells (flow cytometry); assay type: cell-based; settings: treated 1 hour, then activated by K562 cells
[2] = system: flu-exposed human PBMC; assay type: cell-based; settings: cells pre-treated before Flu exposure, human PBMC
[3] = system: 129S8 mice infected with Influenza A virus strain X31 (H3N2); settings: mouse, in vivo
[4] = system: collagen-induced arthritis in DBA1/J mice; test: Therapeutic collagen-induced arthritis model in DBA1/J mice; assay type: in vivo, mouse; settings: for average AI (Arthritic Index): maximum AI=16
Description: 80 DBA1/J mice (male, 7-8 weeks) was received and placed in quarantine for 3 days with daily inspections. Ear tag mice for individual identification.
Individual mouse weights were recorded. Hind paw thickness were recorded by digital caliper. 80 mice subcutaneous were injected with collagen/CFA emulsion (0.05 ml/mouse; 100 μg/mouse collagens in CFA) using a 1 ml syringe fitted with a 25G needle. Mice returned to cages.
80 mice were boosted with collagen/ICFA emulsion. Then their individual weights were recorded.
Mice were scored for signs of arthritis:
7) Calculate Arthritic Index (AI) by addition of individual paw scores and record.
Mice with an AI score within a range of 2-6 were selected for assignment to groups for therapeutic dosing as in Table 4.
Begin intraperitoneal (IP) dosing once daily (QD) according to Table 4.
The compounds clobenpropit (CB) and IT1t were tested. CB and IT1t were stored at 4° C. […] These compounds were doses 7 days per week (Saturday and Sunday included) daily for 14 days.
Mice were weighed, scored for signs or arthritis, and hind paw thickness is measured by digital caliper three-times weekly (Monday, Wednesday and Friday). Any adverse reactions to treatment were recorded.
Termination: AI score were recorded for each limb. The paw thickness of the hind limbs is measured with digital caliper. Mice were anesthetized and exsanguinated into pre-chilled EDTA-tubes.
2) Plasma was assayed by ELISA for IL-1β, IL-6, TRAIL. Then, all limbs were collected.

[5] = Solubility of test compounds
[6] = system: Flu-stimulated pDC from wild type and H4R KO mice; assay type: cell-based, mouse; settings: CB 10 μM, overnight Influenza A
[7] = system: human primary PBMC
[8] = system: human Flu-activated primary PBMC; test: cells; assay type: cell-based; settings: read-out: EC50
[9] = molecular target: CXCR4 (Homo sapiens, UniProt P61073); settings: Jurkat cells, 1 mM, 4° C. for 30 min
[10] = system: Flu-stimulated pDC; test: IFN-α production and membrane TRAIL by pDC cultured with Flu or Dengue; assay type: cell-based, human
Description: PBMC were seeded at 1.10^6/1 mL or purified pDC were seeded at 5.10^4/100 μl and then stimulated with the following viruses: inactivated AT-2 HIV-1MN (CXCR4 co-receptor specific) or AT-2 HIV-1ADA (CCR5 co-receptor specific) at 60 ng/mL p24^CA equivalent (provided by J. D. Lifson (SAIC-NCI, Frederick, Md.)), Infectious human Influenza A/PR/8/34 virus (Flu), titer 1:8192 at dilution 1:1000 or DENV-2 16681 at MOI 10. Infectious HIV-1MN [tissue culture 50% infective dose (TCID50)=[…]] and HIV-1ADA (TCID50=1,000) were used at the same concentration. Purified pDC were pre-treated with amino compounds for 1 hour, following overnight stimulation with virus. Supernatants were collected for cytokine detection. Microvesicles isolated from uninfected cell cultures matched to the culture to produce the virus were used as negative control (Mock).
The compounds were added in pDC culture at 10 μM (or other if specified) 1 hour before stimulation or not of the different viruses. For histamine, X-vivo culture media (Lonza) was used in order to avoid histaminases.
Cells were pre-incubated 1 hour with AMD (20 μM) (Sigma-Aldrich, MO, USA) prior to CB or histamine incubation. pDC were cultured in the presence of […] of the oligodinucleotide A151 (TTAGGG) ODN (Integrated DNA Technologies, Coralville, Iowa). […]

[11] = 10 mg/kg IP once daily, at termination
[12] = 30 mg/kg IP once daily, at termination

Sequence of CXCR4 (P61073 whole entry): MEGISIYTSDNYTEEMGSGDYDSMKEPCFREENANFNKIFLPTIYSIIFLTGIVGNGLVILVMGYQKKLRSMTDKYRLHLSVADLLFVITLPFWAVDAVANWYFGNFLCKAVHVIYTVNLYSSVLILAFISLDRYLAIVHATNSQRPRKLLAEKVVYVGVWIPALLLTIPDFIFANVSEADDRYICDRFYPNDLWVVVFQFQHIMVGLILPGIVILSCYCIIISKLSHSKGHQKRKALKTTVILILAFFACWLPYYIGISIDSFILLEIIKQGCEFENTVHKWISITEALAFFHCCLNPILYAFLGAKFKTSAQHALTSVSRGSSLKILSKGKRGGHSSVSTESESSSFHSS

NC(=NCc1ccc(Cl)cc1)SCCCc1cnc[nH]1 [Clobenpropit, clobenpropit]
IFN-γ, TNF-α and CD107a expression by NK cells [1]: decrease | IFN-α/β and IFN-λ2/3 mRNA levels [2]: significantly reduced | IFN-α, IFN-β and IFN-λ2/3 protein production in bronchioalveolar lavage (BAL) fluid [3]: strong reduction | reduction in terminal plasma concentration of IL-1β ([4]; 3 mg/kg IP once daily): 64% | reduction in terminal plasma concentration of IL-6 ([4]; 3 mg/kg IP once daily): 49% | reduction in terminal plasma concentration of TRAIL ([4]; 3 mg/kg IP once daily): had also an effect | inhibition of disease severity ([4]; 3 mg/kg IP once daily, Day 28-42, at termination (Day 42)): 25% | average AI (Arthritic Index) ([4]; 3 mg/kg IP once daily, at termination (Day 42)): 9.8 | reduction in terminal plasma concentration of IL-1β ([4]; 10 mg/kg IP once daily): 75% | reduction in terminal plasma concentration of IL-6 ([4]; 10 mg/kg IP once daily): 80% | reduction in terminal plasma concentration of TRAIL ([4]; 10 mg/kg IP once daily): had also an effect | reduction in disease severity [4, 11]: 66% | average AI (Arthritic Index) [4, 11]: 4.4 | reduction in terminal plasma concentration of IL-1β ([4]; 30 mg/kg IP once daily): 82% | reduction in terminal plasma concentration of IL-6 ([4]; 30 mg/kg IP once daily): 82% | reduction in terminal plasma concentration of TRAIL ([4]; 30 mg/kg IP once daily): significant reduction | reduction in disease severity [4, 12]: 87% | average AI (Arthritic Index) [4, 12]: 1.8 | disease progression over the dose range ([4]; 3, 10 and 30 mg/kg daily intraperitoneal injection): dose-dependent inhibition | solubility ([5]; PBS, aqueous buffer): > 50 mg/mL | solubility ([5]; water): > 50 mg/mL | IFN-α production by Flu-stimulated pDC from H4R KO mice [6]: inhibited | IFN-α production by Flu-stimulated pDC from wild type mice [6]: inhibited | Therapeutic index (Ratio TC50/EC50) [7]: 17.4 | EC50 [8]: 24 ± 2 µM | binding of the CXCR4 antibody 12G5 on T cells [9]: inhibited | IFN-α production and membrane TRAIL expression by pDC cultured with Flu and Dengue [10]: strongly inhibited
